≈ marks a conversion by molar mass, not a printed value. Calls of active or inactive are those of the source. No cut-off for these calls is given here. *1 amine or outer side, *2 acyl side, *3 side chain or, on linkers, in order; H or OH if unused. Where a SMILES comes first, the peptide text is derived from it. Bridges are numbered along the chain shown (N, C = ends). [ ]: non-standard residue; d: D form. The star is where a group is joined. hTyr(3S-OH,4S-OH,3'-OSO3H) = N[C@H](C(=O)O)[C@H](O)[C@@H](O)c1ccc(O)c(OS(=O)(=O)O)c1; Orn(4R-OH,5R-OH) = O=C([C@H](C[C@@H](O)[C@@H](O)N[*:3])N[*:1])[*:2]; Pro(3S-OH,4S-Me) = C[C@H]1CN[C@H](C(=O)O)[C@H]1O; X1 = CCCCCOc1ccc(-c2cc(-c3ccc(C(=O)*)cc3)no2)cc1; Gln(3R-OH) = NC(=O)C[C@@H](O)[C@H](N)C(=O)O; Hyp = O=C(O)[C@@H]1C[C@@H](O)CN1
Experiments:
[1] = system: Nakaseomyces glabratus; assay: Antifungal activity against Candida glabrata isolated from candidemia patient after 48 hrs; type: functional
[2] = system: Nakaseomyces glabratus; assay: Reduction of kidney fungal burden in Candida glabrata infected ip dosed neutropenic Swiss Webster mouse; type: functional
[3] = system: Nakaseomyces glabratus; assay: Reduction of lung fungal burden in Candida glabrata infected ip dosed neutropenic Swiss Webster mouse; type: functional
[4] = system: Nakaseomyces glabratus; assay: Reduction of spleen fungal burden in Candida glabrata infected ip dosed neutropenic Swiss Webster mouse; type: functional
[5] = system: Nakaseomyces glabratus; assay: Reduction of kidney fungal burden in Candida glabrata infected neutropenic Swiss Webster mouse at >=50 mg/kg, ip after 7 days; type: functional, organism-based
[6] = Serum clearance in Candida glabrata infected neutropenic Swiss Webster mouse; type: ADME, organism-based
[7] = system: Nakaseomyces glabratus; assay: Reduction of fungal burden in Candida glabrata infected neutropenic Swiss Webster mouse at 100 mg/kg, ip after 7 days; type: functional, organism-based; design: dose 100 mg/kg
[8] = system: Nakaseomyces glabratus; assay: Antifungal activity against Candida glabrata isolated from candidemia patient after 24 hrs; type: functional

CCCCCOc1ccc(-c2cc(-c3ccc(C(=O)N[C@H]4C[C@@H](O)[C@@H](O)NC(=O)[C@@H]5[C@@H](O)[C@@H](C)CN5C(=O)[C@H]([C@H](O)CC(N)=O)NC(=O)[C@H]([C@H](O)[C@@H](O)c5ccc(O)c(OS(=O)(=O)O)c5)NC(=O)[C@@H]5C[C@@H](O)CN5C(=O)[C@H]([C@@H](C)O)NC4=O)cc3)no2)cc1 [MICAFUNGIN] (X1-[Orn(4R-OH,5R-OH)]T[Hyp][hTyr(3S-OH,4S-OH,3'-OSO3H)][Gln(3R-OH)][Pro(3S-OH,4S-Me)]; lactam 1-C)
MIC [1]: 0.02 µg/mL (≈ 0.0157 µM) | ED50 [2]: 14.7 mg/kg | ED50 [3]: 17.3 mg/kg | ED50 [4]: 7.38 mg/kg | Activity [5]: Active | clearance [6]: 0.0133 mL/min | Activity [7]: Active | MIC [8]: 0.02 µg/mL (≈ 0.0157 µM)
